In patent publication US6750009B2 (priority 2002, dated 2004):
Where “and” joins values, the source holds several entries; their conditions need not be identical. Identical values can stand only once. Like-named read-outs stand apart in the source and are kept apart here.

Experiments:
RSV minigenome [1] = type: cell-based, Respiratory syncytia virus (RSV)
Sindbis replicon = type: cell-based, Sindbis virus; settings: for Sindbis Mixed Viral Replicon Culture % of Control (ave): Table 3
RSV minigenome [2] = type: cell-based, Respiratory syncytia virus (RSV); remark: listed apart in the source
YFR replicon = type: cell-based, yellow fever virus; settings: for YFR Mixed Viral Replicon Culture % of Control (ave): co-cultured HCV/Sindbis/YFR replicons
HCV replicon = type: cell-based, hepatitis C virus

What does the source list for α-interferon [IFNα]?
RSV Single Viral Culture % of Control (ave) (RSV minigenome [1]; IFN-α 100 Units/ml): 84.30 % of Control; RSV Single Viral Culture % of Control (ave) (RSV minigenome [1]; IFN-α 1000 Units/ml): 47.29 % of Control; inhibition of Sindbis replicon (Sindbis replicon): > 98%; RSV Mixed Viral Culture % of Control (ave) (RSV minigenome [2]; IFN-α 100 Units/ml): 84.30 % of Control; RSV Mixed Viral Culture % of Control (ave) (RSV minigenome [2]; IFN-α 1000 Units/ml): 77.80 % of Control; inhibition of YFR replicon (YFR replicon; 100 u/ml IFNα, mixed viral replicon culture): > 81%; YFR Mixed Viral Replicon Culture % of Control (ave) (YFR replicon; IFNα 1 Units/ml): 41.47 % of Control; YFR Mixed Viral Replicon Culture % of Control (ave) (YFR replicon; IFNα 10 Units/ml): 26.09 % of Control; YFR Mixed Viral Replicon Culture % of Control (ave) (YFR replicon; IFNα 100 Units/ml): 18.64 % of Control; inhibition of HCV replicon (HCV replicon): > 91%

What does the source list for NC(=O)c1ncn([C@@H]2O[C@H](CO)[C@@H](O)[C@H]2O)n1 [Ribavirin, ribavirin]?
RSV Single Viral Culture % of Control (ave) (RSV minigenome [1]; Ribavirin 0.5 μ/ml): 97.31 % of Control; RSV Single Viral Culture % of Control (ave) (RSV minigenome [1]; Ribavirin 1 μ/ml): 17.86 % of Control; RSV Single Viral Culture % of Control (ave) (RSV minigenome [1]; Ribavirin 10 μ/ml): 3.74 % of Control; RSV Single Viral Culture % of Control (ave) (RSV minigenome [1]; Ribavirin 100 μ/ml): 2.82 % of Control; effect on Sindbis replicon replication (Sindbis replicon): did inhibit; Sindbis Mixed Viral Replicon Culture % of Control (ave) (Sindbis replicon; Ribavirin 0.5 μg/ml): 40.54 % of Control; Sindbis Mixed Viral Replicon Culture % of Control (ave) (Sindbis replicon; Ribavirin 1 μg/ml): 62.98 % of Control; Sindbis Mixed Viral Replicon Culture % of Control (ave) (Sindbis replicon; Ribavirin 10 μg/ml): 35.04 % of Control; Sindbis Mixed Viral Replicon Culture % of Control (ave) (Sindbis replicon; Ribavirin 100 μg/ml): 18.11 % of Control; RSV Mixed Viral Culture % of Control (ave) (RSV minigenome [2]; Ribavirin 0.5 μ/ml): 96.16 % of Control; RSV Mixed Viral Culture % of Control (ave) (RSV minigenome [2]; Ribavirin 1 μ/ml): 44.14 % of Control; RSV Mixed Viral Culture % of Control (ave) (RSV minigenome [2]; Ribavirin 10 μ/ml): 42.42 % of Control; RSV Mixed Viral Culture % of Control (ave) (RSV minigenome [2]; Ribavirin 100 μ/ml): 13.90 % of Control; HCV Mixed Viral Replicon Culture % of Control (ave) (HCV replicon): 100.37 % of Control and 101.51 % of Control and 99.75 % of Control and 110.22 % of Control; effect on HCV replication (HCV replicon): no effect
